Reference: paper PMC6467514 (Chembiochem : a European journal of chemical biology, 2019)

What was measured:
[1] = target: T1, adenosine deaminase (ADA) (Bos taurus, UniProt P56658); test: biochemical
T1 sequence (P56658 2-363): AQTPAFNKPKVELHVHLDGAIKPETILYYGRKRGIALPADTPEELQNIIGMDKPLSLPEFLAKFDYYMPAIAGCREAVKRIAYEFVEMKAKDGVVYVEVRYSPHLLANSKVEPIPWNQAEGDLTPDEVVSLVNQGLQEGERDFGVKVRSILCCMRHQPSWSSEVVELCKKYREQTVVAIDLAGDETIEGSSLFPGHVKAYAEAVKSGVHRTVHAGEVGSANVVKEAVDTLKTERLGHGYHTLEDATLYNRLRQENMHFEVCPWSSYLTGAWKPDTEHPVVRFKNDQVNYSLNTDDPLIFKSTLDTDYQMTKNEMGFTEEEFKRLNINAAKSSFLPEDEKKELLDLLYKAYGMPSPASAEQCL

[2] = target: T1, adenosine deaminase (ADA); test: fluorescence assay of tzA to tzI deamination, IC50 with Hill fit; assay type: biochemical
[3] = target: T1, adenosine deaminase (ADA); test: as above; assay type: biochemical; remark: listed apart in the source
[4] = target: T1, adenosine deaminase (ADA); test: stopped-flow fluorescence kinetics of deamination to tzG; assay type: biochemical

With `CCCCCC[C@H]([C@H](C)O)n1cnc2c(N)ncnc21` [EHNA] the IC50 [1] was 0.0232 ± 0.0042 µM.

In the case of `CNc1cc(Cl)nc2c1ncn2[C@@H]1O[C@H](CO)[C@@H](O)[C@H]1O` [compound 8, 5-chloro-7-methylamino-1-deaza-purine riboside], the IC50 [2] is reported as 21 ± 8 µM.

`OC[C@H]1O[C@@H](n2cnc3c(NCc4ccccc4)cc(Cl)nc32)[C@H](O)[C@@H]1O` [compound 11, 5-chloro-7-benzylamino-1-deaza-purine riboside] was tested, and the IC50 [3] was 220 ± 70 µM.

In the case of `Nc1nc(N)c2nsc([C@@H]3O[C@H](CO)[C@@H](O)[C@H]3O)c2n1` [tz2-AA], the “stopped-flow fluorescence kinetics of deamination to tzG” value [4] is reported as “the ^tz2-AA HMM curve showed parabolic behaviour with increasing substrate concentration”.
